A value given as a limit tells only on which side of the number the result lay.

What all share (assay type): cell-based, human
Test [1] deals with HOK-16B cells. The test is described as follows: Cell spreading activity assay on coated plates. Conditions: spreading cells divided by total bound cells, coated plates. The protocol:
To identify spreading cells, attached cells were fixed with 10% formalin in PBS for 15 min, rinsed twice with PBS, and stained with 0.005% crystal violet for 1 h. The plates were then gently rinsed with DDW. To ensure a representative count, each plate was divided into quarters, two fields per quarter were photographed using an Olympus BX51 microscope at 100× magnification. Cells that had adopted a flattened, polygonal shape, with filopodia-and lamellipodia-like extensions were considered to be spreading cells. In contrast, cells that resisted being washed and remained tethered to the plate surface were considered to be non-spreading cells.
To examine the adhesion activity of peptide P4 in detail, the inventors examined whether the adherent cells were tethered to the substratum or spread over the substratum. The BSA and rLG3 were used as the negative control and positive control, respectively, the percentage of cells displaying a spreading morphology was quantified by dividing the number of spreading cells by the total number of bound cells.

A further test deals with NHEK. Description: Cell proliferation on coated plates, viable cell count by trypan blue exclusion. Conditions: peptide P4 20 μg/12-well plate; 1-4 days; compared with PS-coated plate. The procedure:
Normal human epidermal keratinocytes (NHEK) tissue samples were prepared from foreskin tissue of healthy 1- to 3-year-old people. The tissue samples were washed three times with calcium- and magnesium-free Hanks balanced salt solution containing 3× antibiotics (CMF-HBSS; GibcoBRL), and added with CMF-HBSS containing collgenase (collgenase type II, 1.0 mg/ml; sigma Chemical Co.) and dispase (dispase grade II, 2.4 mg/ml; Boeringer-Mannheim) to isolate epithelial layer from epidermal tissue, and then, cultured in 95% air and 5% CO2 at 37° C. for 90 min. NHEKs were prepared from the isolated epidermal tissue, and cultured in epithelial cell medium containing 0.15 mM calcium and growth factor bullet kit (KGM; Clonetics Corp.). When cell density was about 70%, NHEKs were divided into 1×10^5 cells per 60-mm petri dish and cultured until cell density reached about 70%. NHEKs were subcultured two times the same way as the above and used.
Polystyrene (PS), BSA (bovine serum albumin) and synthetic peptide P4 were coated on […]. NHEK (PD 13.0; 2×10^4 cells/12-well plate) and NHEF (passage number 4) cultures were added to the 12-well plate coated with the polystyrene (PS), BSA (1%) and synthetic peptide P4 (20 μg/12-well plate), and cultured for 1, 2, 3, or 4 days. Viable cells were counted by trypan blue exclusion in a hemocytometer. Data are expressed as mean ±SD (n=4).

The subject of test [2] is HOK-16B cells. The test is described as follows: Competition of soluble peptides for HOK-16B cell adhesion to rLG3-coated plates. The note with it: HOK-16B cells preincubated 30 min with 100 μg/ml peptide, control without peptide = 100%. The protocol: To identify the receptor of the HOK-16B cells for rLG3 protein and peptide P4, 5 μg/ml of mAbs to different types of integrins or 5 mM EDTA were preincubated individually with HOK-16B cells in 0.5 ml incubation solution (2×10^5 cells/ml) for 30 min at 37° C. The preincubated cells were then transferred onto plates precoated with either 25 μg/ml of rLG3 protein or 10 μg/well of peptide P4 and incubated for 1 h at 37° C. Attached cells were then quantified by the cell adhesion assay described above in the Experimental Example 2, and cell adhesion activity inhibition rate were measured.
Accordingly, the inventors examined the ability of peptide P4 to compete for cell adhesion activity to rLG3 domain by the method of Experimental Example 4. First, the purified rLG3 proteins (25 μg/well) were coated onto 24-well plates. HOK-16B cells were preincubated with the various peptides (100 μg/ml) or without the peptide for 30 min at 37° C. The preincubated cells were then added to rLG3-coated plates and cultured for 1 h in serum-free medium. The unbound cells were washed off and the adherent cells were fixed and stained with crystal violet. The average adhesion activity of the control cultures (HOK-16B cells preincubated without peptide) was considered 100%, the results are expressed as mean ±SD of the four independent experiments.

Test [3] has as its system HOK-16B cells. The test is described as follows: Cell adhesion assay on coated plates (crystal violet absorbance at 570 nm / cell counting). The procedure: The cell adhesion assay was performed according to a method reported by Okazaki et al. (J. Biol. Chem., 277:37070, 2002). In detail, 24-well culture plates (Nunc, Roskilde, Denmark) were coated with various amounts of rLG proteins at 4° C. overnight. The peptides were also coated on plates by drying overnight. The substrate-coated on the plates were blocked by adding 1% heat-inactivated bovine serum albumin (BSA) in PBS for 1 h at 37° C. and washed twice with PBS. The cells in the Experimental Example 1, detached by 0.05% tyrpsin and 0.53 mM EDTA in PBS and resuspended in culture media, were added (1×10^5 cells/500 μl) to each plate and incubated for 1 h at 37° C. After incubation, unattached cells were removed by rinsing twice with PBS. The attached cells were fixed with 10% formalin in PBS for 15 min, rinsed twice with PBS, and stained with 0.5% crystal violet for 1 h. The plates were gently rinsed with DDW three times and lysed with 2% SDS for 5 min. Absorbance was measured at 570 nm in a Bio-Rad Model 550 microplate reader (BioRad).
The cell adhesion and spreading activities on peptide-coated plates were examined using HOK-16B cells by the same method as Experimental Example 2. 24-well plates were coated with 10, 20, 30, 40 and 50 μg/well peptides P1 to P5, respectively. HOK-16B cells were added to peptide-coated plates and cultured for 1 h in serum-free medium for 1 hr. After the unbound cells were washed off, adherent cells were fixed and stained with crystal violet, and then the stained cells were analyzed. Absorbance was measured at 570 nm in a microplate reader. BSA and the rLG3 were used as negative control and positive control, respectively.
It was observed that peptide P4 promotes strong cell adhesion and spreading activities and binds to integrin α3β1 in the Example 4. Therefore, to determine the biologically active core sequences in peptide P4, five synthetic peptides (P4 D-I to P4 D-V), which are C-terminal truncated peptides from the peptide P4, and six synthetic peptides (P4 D-N1 to P4 D-N6), which are N-terminal truncated peptides from the peptide P4 were prepared (FIG. 6A) and examined for HOK-16B cell adhesion and spreading activities on peptide-coated plates by the present inventors. 24-well plates were coated with 10 μg/well C-terminal truncated peptides or N-terminal truncated peptides, and HOK-16B cells were added to the plates, and then cultured in serum-free medium for 1 hr. After the unbound cells were washed off, the adherent cells were fixed to stain with crystal violet, and the stained cells were analyzed. Absorbance was measured at 570 nm in a microplate reader. Peptide P4 and BSA were used as the positive and negative controls, respectively.
24-well plates were coated with 10 μg/well peptides, and HOK-16B cells were added to the plates, and then cultured in serum-free medium for 1 hr. After the unbound cells were washed off, the adherent cells were fixed to stain with crystal violet, and the stained cells were analyzed. Peptide P4 and BSA were used as the positive and negative controls, respectively. The results were expressed as mean ±SD of the four independent experiments.

Regarding PPFLMLLKGSTR [peptide P4], the “HOK-16B cells displaying a spreading morphology” value in the test with HOK-16B cells [1] came to 35%. For the same molecule, in the test on NHEK, the “increase in the number of NHEKs according to cell proliferation” value is “increased more than that on PS-coated plate”. Besides, the “inhibition of cell adhesion to rLG3” value in the test on HOK-16B cells [2] is listed as “approximately 51%”. Further, the “coating concentration at which maximum cell adhesion was obtained” value in the test with HOK-16B cells [3] (HOK-16B cells, peptide-coated 24-well plates) is given as not below 10 μg/well. Besides, the “cell adhesion activity of synthetic peptides” value in the test with HOK-16B cells [3] (HOK-16B cells, plates coated with 10-50 μg/well peptide, 1 h, serum-free medium) is reported as “strong dose-dependent cell adhesion activity”.

B1: rLG3: recombinant His6-tagged LG3 domain, residues 1128-1364 of human laminin α3 chain (protein, listed as Homo sapiens)
chain: VRLNDTVGVTKKCSEDWKLVRSASFSRGGQLSFTDLGLPPTDHLQASFGFQTFQPSGILLDHQTWTRNLQVTLEDGYIELSTSDSGGPIFKSPQTYMDGLLHYVSVISDNSGLRLLIDDQLLRNSKRLKHISSSRQSLRLGGSNFEGCISNVFVQRLSLSPEVLDLTSNSLKRDVSLGGCSLNKPPFLMLLKGSTRFNKTKTFRINQLLQDTPVASPRSVKVWQDACSPLPKTQANH
modifications: His6 tag
notes: recombinant His6-tagged LG3 domain, residues 1128-1364 of human laminin α3 chain
Take B1: the “HOK-16B cells displaying a spreading morphology” value with HOK-16B cells [1] is on record as 47%. The “reduction of the level of cell adhesion compared to the 5 μg/ml laminin-coated control” value in the test with HOK-16B cells [3] (50 μg/ml rLG3 protein coating) was “approximately 45%”. Moreover, the “cell adhesion activity of rLG proteins” value in the test on HOK-16B cells [3] (HOK-16B cells on rLG protein-coated plates, 1 h, compared to BSA control) was “exhibited the adhesive activity”. For the same molecule, the “coating concentration at which maximum adhesion occurs” value in the test with HOK-16B cells [3] (HOK-16B cells, rLG protein-coated plates) is 25 µg/mL.

The values are drawn from patent publication US7517654B2, “Peptide and a derivative thereof promoting cell adhesion and spreading” (Seoul National University Industry Foundation, priority 2004, dated 2009).
